# Source: publication PMC546160 (Nucleic Acids Research, 2005)
# Tests used:
# [1] = target: HhaI methyltransferase (M.HhaI) (Haemophilus parahaemolyticus, UniProt P05102, W41I); test: biochemical
# [2] = target: T1, HhaI methyltransferase (M.HhaI) (Haemophilus parahaemolyticus, UniProt P05102); test: biochemical
# T1 sequence (P05102 1-327): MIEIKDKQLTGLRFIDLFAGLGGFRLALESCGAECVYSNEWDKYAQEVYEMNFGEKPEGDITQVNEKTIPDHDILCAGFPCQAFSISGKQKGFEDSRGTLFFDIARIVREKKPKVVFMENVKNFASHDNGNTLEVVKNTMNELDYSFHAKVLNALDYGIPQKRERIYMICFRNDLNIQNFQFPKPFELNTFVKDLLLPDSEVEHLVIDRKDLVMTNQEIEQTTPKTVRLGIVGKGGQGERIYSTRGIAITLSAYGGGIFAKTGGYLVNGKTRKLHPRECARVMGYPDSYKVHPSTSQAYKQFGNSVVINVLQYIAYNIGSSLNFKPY
smiles,measurement,setting,value
C[S+](CC[C@H](N)C(=O)O)C[C@H]1O[C@@H](n2cnc3c(N)ncnc32)[C@H](O)[C@@H]1O (some centres unmarked) [AdoMet],Kd,[1],14 µM
same,Kd,[2],4.4 µM
